# Assay results published in publication PMC8911826, “Design of Oligourea-Based Foldamers with Antibacterial and Antifungal Activities” (Molecules, 2022).
# Where two headings read alike, the source gives them in different places. Marks after values point to notes of the source that are not given here.
# How the values were obtained:
# [1] = tested on: C. albicans ATCC 18804; assay: Antifungal MIC assay in SAB, C. albicans; assay type: cell-based, Candida albicans
# Protocol: The Candida albicans (C. albicans, ATCC 18804) strain was used to assess the antifungal properties of the samples. Briefly, C. albicans was cultured aerobically at 30 °C in Sabouraud dextrose broth (SAB) medium (Becton Dickinson, Voisins le Bretonneux, France). One colony was then transferred to 10 mL of SAB medium and incubated at 30 °C for 20 h. The absorbance at 620 nm of overnight culture was adjusted to 0.001 and the tests were performed under the same conditions as those used for bacteria, with the exception of the temperature (30 °C instead of 37 °C) and the culture medium (SAB instead of MHB).
# [2] = tested on: Staphylococcus aureus S1 Methicillin Resistant (MRSA); assay type: cell-based
# Protocol: (§1) Staphylococcus aureus (S. aureus, ATCC 25923), Staphylococcus aureus S1 Methicillin Resistant (MRSA; this strain was kindly provided by Dr Gilles Prévost, University of Strasbourg), Escherichia coli (E. coli, ATCC 25922), and Pseudomonas aeruginosa (P. aeruginosa, ATCC 27853) strains were used to assess the antibacterial properties of the samples. Bacterial strain was cultured aerobically at 37 °C in Mueller–Hinton broth (MHB) medium (Merck, Germany), pH 7.4. One colony was transferred to 10 mL of MHB medium and incubated at 37 °C for 20 h. To obtain bacteria in the mid logarithmic phase of growth, the absorbance at 620 nm of overnight culture was adjusted to 0.001, corresponding to a final density of 5 × 10^5 CFU/mL. Ninety percent of this culture was incubated with 10% of the test compound at different concentrations. The positive control was composed of 90% bacterial suspension and 10% a mixture of antibiotics (tetracycline: 10 μg/mL and cefotaxime: 0.1 μg/mL in PBS). The negative control was composed of 90% of the bacterial suspension and 10% of PBS, corresponding to our 100% growth.
# (§2) In order to test the influence of serum on the minimal inhibitory concentration (MIC), we added 10% decomplemented fetal bovine serum or 50% nondecomplemented fetal bovine serum in MHB medium. After 24 h of incubation at 37 °C with shaking, the optical density at 620 nm of each well was measured. The smallest concentration for which bacterial growth is 0% corresponds to the MIC of the tested compound.
# [3] = tested on: E. coli ATCC 25922; assay type: cell-based, Escherichia coli
# Protocol: as §1, §2
# [4] = tested on: P. aeruginosa ATCC 27853; assay type: cell-based, Pseudomonas aeruginosa; details: for MIC, P. aeruginosa ATCC 27853: MHB medium pH 7.4, 24 h, 100 μL, 5 × 10^5 CFU/mL, OD 620 nm, lowest concentration with 0% growth, mean of 3 samples
# Protocol: as §1, §2
# [5] = tested on: S. aureus ATCC 25923; assay type: cell-based, Staphylococcus aureus
# Protocol: as §1, §2
# [6] = tested on: Aspergillus fumigatus 098; assay: Antifungal assay on spores, growth evaluated by microscopy; assay type: cell-based; details: 30 °C, 24 h without agitation, n = 3
# Protocol: Aspergillus fumigatus strain (A. fumigatus, ASPFU098 from Dynamique des interactions hôte pathogène (DIHP) laboratory—EA 7292, Strasbourg) were tested to evaluate the antifungal properties of foldamers. Spores were resuspended at a concentration of 10^3 spores/mL in Sabouraud dextrose broth medium. Test samples were incubated with 90 μL of fungal spores. The suspension was incubated at 30 °C for 24 h without agitation. Fungal growth was monitored microscopically after 24 h. Media alone was used as negative control and corresponds to 100% fungal growth; voriconazole (50 μg/mL) was used as a positive control and corresponds to 100% growth inhibition.
# [7] = tested on: MDA-MB-231 cells; details: 24 h
# Protocol: (§3) We used the human breast cancer cell line MDA-MB-231. The cells were cultured using RPMI that was supplemented with 100 units/mL penicillin, 100 µg/mL streptomycin, and 10% of fetal calf serum (FCS from HyClone, Fischer Scientific, Illkirch, France). The MDA-MB-231 cells were plated in 48-well plates one day before the experiments were conducted. The cell confluence was around 60% the day of the assay.
# The cell viability was determined on MDA-MB-231 cells by performing the MTS assay (3-(4,5-dimethylthiazol-2-yl)-5-(3-carboxymethoxyphenyl)-2-(4-sulfophenyl)-2H-tetrazolium salt) (CellTiter 96® AQueous One Solution Cell Proliferation Assay from Promega). This assay was performed using biological triplicates (same amount of foldamer were added to 3 different wells). Increasing amounts of foldamer diluted in 250 μL/well of RPMI 10% FCS were added to the cells. After 24 h of incubation, the culture medium was removed and replaced with 300 μL/well of RPMI 10% FCS containing the MTS reagent (50 μL/well). After incubation at 37 °C for 1 h and 10 min, 200 μL of medium were withdrawn and used to measure the absorbance at 490 nm (and 680 nm for background). Untreated cells were used as control (100% of cell viability).
# [8] = tested on: MDA-MB-231 cells
# Protocol: as §3
# The membrane permeabilization activity was measured as the leakage of lactate dehydrogenase (LDH) from the cells. […] Thereby, foldamers were incubated with MDA-MB-231 cells and after incubation at 37 °C for 1 h and 10 min, an aliquot (50 μL) of the supernatant of each well was used for the measurement of the LDH activity. […] The LDH release was measured using a commercially available kit (CytoTox-ONE membrane integrity assay from Promega). Untreated cells were used as control. The value of 100% LDH release was obtained by using cells treated with a lysis buffer. Absorbance was measured at 490 nm (and at 680 nm for background).
# [9] = tested on: S. aureus; details: 50% bovine serum; cited from earlier work
# [10] = MHB medium pH 7.4, 24 h, 37 °C, 100 μL, 5 × 10^5 CFU/mL, OD 620 nm, lowest concentration with 0% growth, mean of 3 samples
# [11] = Table S2, MIC of Table 1 in μM, MHB, 24 h, 37 °C
Compound,"MIC, C. albicans 18804 ([1]; ATCC 18804, 24 h) [mg/L]","MIC, MRSA [2, 10] [µg/mL]","MIC, MRSA ([2]; S1 Methicillin Resistant, 24 h) [μΜ]","MIC, E. coli 25922 ([3]; ATCC 25922, 24 h) [μΜ]","MIC, E. coli ATCC 25922 [3, 10] [mg/L]","MIC, P. aeruginosa 27853 ([4]; ATCC 27853, 24 h) [μΜ]","MIC, P. aeruginosa ATCC 27853 ([4]; 37 °C) [mg/L]","MIC, S. aureus 25923 ([5]; ATCC 25923, 24 h) [μΜ]","MIC, S. aureus ATCC 25923 [5, 10]",other results
CC(C)[C@H](N)CNC(=O)N[C@H](CNC(=O)N[C@H](CNC(=O)N[C@H](CNC(=O)N[C@@H](CCCNC(=N)N)CNC(=O)N[C@H](CNC(=O)N[C@@H](CCCNC(=N)N)CNC(=O)N[C@H](CCC(N)=O)C(C)C)Cc1c[nH]c2ccccc12)C(C)C)Cc1c[nH]c2ccccc12)Cc1c[nH]cn1 [OL-1],12.5,50,36.56,9.14,12.5,9.14,12.5,9.14,12.5 * μg/mL,–
CC(C)NC(=O)N[C@H](CNC(=O)N[C@H](CNC(=O)N[C@H](CNC(=O)N[C@H](CNC(=O)N[C@@H](CCCNC(=N)N)CNC(=O)N[C@H](CNC(=O)N[C@@H](CCCNC(=N)N)CNC(=O)N[C@H](CCC(N)=O)C(C)C)Cc1c[nH]c2ccccc12)C(C)C)Cc1c[nH]c2ccccc12)Cc1c[nH]cn1)C(C)C [OL-2],12.5,12.5,8.6,4.3,6.25,17.2,25,4.3,6.25 µg/mL,–
CC(C)NC(=O)N[C@H](CNC(=O)N[C@H](CNC(=O)N[C@H](CNC(=O)N[C@H](CNC(=O)N[C@H](CNC(=O)N[C@H](CNC(=O)N[C@@H](CCCNC(=N)N)CNC(=O)N[C@H](CCC(N)=O)C(C)C)Cc1c[nH]c2ccccc12)Cc1c[nH]cn1)C(C)C)Cc1c[nH]c2ccccc12)Cc1c[nH]cn1)C(C)C [OL-3],12.5,12.5,8.7,8.7,12.5,34.8,50,8.7,12.5 µg/mL,"MIC, Aspergillus fumigatus 098 ([6]; spores in Sabouraud dextrose broth): below 50 μg/mL; MIC towards MRSA in the presence of 10% serum versus without ([2]; MHB supplemented with 10% decomplemented fetal calf serum, 24 h, 37 °C, mean of three samples): remained unaffected; Change of MIC towards MRSA in the presence of 50% serum ([2]; MHB supplemented with 50% nondecomplemented fetal calf serum, 24 h, 37 °C, mean of three samples): two to four-fold; IC50, cell viability (MTS) [7]: about 50 μg/mL; LDH leakage / alteration of the membranes [8]: least cytotoxic foldamer towards mammalian cells"
CC(C)NC(=O)N[C@@H](CCCNC(=N)N)CNC(=O)N[C@H](CNC(=O)N[C@H](CNC(=O)N[C@H](CNC(=O)N[C@H](CNC(=O)N[C@H](CNC(=O)N[C@H](CNC(=O)N[C@@H](CCCNC(=N)N)CNC(=O)N[C@H](CCC(N)=O)C(C)C)Cc1c[nH]c2ccccc12)Cc1c[nH]cn1)C(C)C)Cc1c[nH]c2ccccc12)Cc1c[nH]cn1)C(C)C [OL-4],–,6.25,–,–,6.25,–,50,–,6.25 µg/mL,"MIC, C. albicans 18804 ([1]; Sabouraud dextrose broth (SAB), 24 h, 30 °C, 100 μL, OD 620 nm, n = 3): 12.5 mg/L; MIC, MRSA [2, 11]: 3.86 μΜ; MIC, E. coli 25922 [3, 11]: 3.86 μΜ; MIC, P. aeruginosa 27853 [4, 11]: 30.88 μΜ; MIC, S. aureus 25923 [5, 11]: 3.86 μΜ"
CC(C)NC(=O)N[C@H](CNC(=O)N[C@@H](CCCNC(=N)N)CNC(=O)N[C@H](CNC(=O)N[C@H](CNC(=O)N[C@@H](CCCNC(=N)N)CNC(=O)N[C@H](CNC(=O)N[C@@H](CCCNC(=N)N)CNC(=O)N[C@H](CCC(N)=O)C(C)C)Cc1c[nH]c2ccccc12)C(C)C)Cc1c[nH]c2ccccc12)C(C)C [OL-5],6.25,6.25,4.25,4.25,6.25,8.5,12.5,8.5,12.5 µg/mL,–
CC(=O)N[C@@H](CCCCN)C(=O)N[C@@H](Cc1c[nH]cn1)C(=O)N[C@@H](CCCCN)C(=O)N[C@@H](Cc1c[nH]cn1)C(=O)N[C@@H](CCCCN)C(=O)N[C@@H](C)CNC(=O)N[C@H](CNC(=O)N[C@@H](C)CNC(=O)N[C@H](CNC(N)=O)Cc1c[nH]c2ccccc12)Cc1c[nH]c2ccccc12 [OL-6],–,–,–,–,–,–,–,–,–,"MIC, E. coli ATCC 25922 ([3]; ATCC 25922, 24 h, pH 7.4): ≥ 100 mg/L; MIC, S. aureus ATCC 25923 ([5]; ATCC 25923, 24 h, pH 7.4): ≥ 100 µg/mL"
CC(=O)N[C@@H](CCCNC(=N)N)C(=O)N[C@@H](Cc1c[nH]cn1)C(=O)N[C@@H](CCCNC(=N)N)C(=O)N[C@@H](Cc1c[nH]cn1)C(=O)N[C@@H](CCCNC(=N)N)C(=O)N[C@H](CNC(=O)N[C@H](CNC(=O)N[C@H](CNC(=O)N[C@H](CNC(N)=O)Cc1c[nH]c2ccccc12)C(C)C)Cc1c[nH]c2ccccc12)C(C)C [OL-7],–,–,–,–,–,–,–,–,–,"MIC, E. coli ATCC 25922 ([3]; ATCC 25922, 24 h, pH 7.4): ≥ 100 mg/L; MIC, S. aureus ATCC 25923 ([5]; ATCC 25923, 24 h, pH 7.4): ≥ 100 µg/mL"
"C[C@@H](c1ncncc1F)[C@](O)(Cn1cncn1)c1ccc(F)cc1F [Voriconazole, reference compound]",–,–,–,–,–,–,–,–,–,"MIC ([6]; Aspergillus fumigatus, 098, spores in Sabouraud dextrose broth): 12.5 mg/L"
Pexiganan,–,–,–,–,–,–,–,–,–,Loss of activity in the presence of serum [9]: 32 fold
